Experiments:
[1] = biological target: glucocorticoid receptors (Homo sapiens, UniProt P04150); conditions: cited from earlier work
[2] = test system: mammalian embryos; conditions: cited from earlier work
[3] = test system: Hedgehog protein signaling pathway; test: Inhibition of Shh-induced differentiation of C3H10T1/2 cells (alkaline phosphatase activity, OD 415 nm); format: cell-based, mouse; conditions: for inhibition of the alkaline phosphatase activity induced by the overexpression of Shh: 10 μM, 5 days, C3H10T1/2 cells transfected with Shh plasmid pRK5
Protocol: The differentiation of the C3H10T1/2 cells, which is accompanied by induction of alkaline phosphatase activity, is then evaluated by measuring the optical density at 415 nm, in the presence of the alkaline phosphatase substrate, para-nitrophenyl phosphate. The values indicated correspond to the mean±standard error (n=4), and
The inhibition of differentiation of the C3H10T1/2 cells is expressed through the percentage alkaline phosphatase activity, relative to the nontreated cells (maximum activity=100%). The values indicated correspond to the mean±standard error (n=4) of two independent experiments.
The C3H10T1/2 pluripotent fibroblast cell line (ATCC) is cultured under the conditions recommended by the ATCC. C3H10T1/2 cells were transfected with the plasmid pRK5 encoding the mouse Shh protein (Taipale et al., Nature, 2001, 411, 349-354), using calcium phosphate, according to conventional protocols.

Sequence of glucocorticoid receptors (P04150 whole entry): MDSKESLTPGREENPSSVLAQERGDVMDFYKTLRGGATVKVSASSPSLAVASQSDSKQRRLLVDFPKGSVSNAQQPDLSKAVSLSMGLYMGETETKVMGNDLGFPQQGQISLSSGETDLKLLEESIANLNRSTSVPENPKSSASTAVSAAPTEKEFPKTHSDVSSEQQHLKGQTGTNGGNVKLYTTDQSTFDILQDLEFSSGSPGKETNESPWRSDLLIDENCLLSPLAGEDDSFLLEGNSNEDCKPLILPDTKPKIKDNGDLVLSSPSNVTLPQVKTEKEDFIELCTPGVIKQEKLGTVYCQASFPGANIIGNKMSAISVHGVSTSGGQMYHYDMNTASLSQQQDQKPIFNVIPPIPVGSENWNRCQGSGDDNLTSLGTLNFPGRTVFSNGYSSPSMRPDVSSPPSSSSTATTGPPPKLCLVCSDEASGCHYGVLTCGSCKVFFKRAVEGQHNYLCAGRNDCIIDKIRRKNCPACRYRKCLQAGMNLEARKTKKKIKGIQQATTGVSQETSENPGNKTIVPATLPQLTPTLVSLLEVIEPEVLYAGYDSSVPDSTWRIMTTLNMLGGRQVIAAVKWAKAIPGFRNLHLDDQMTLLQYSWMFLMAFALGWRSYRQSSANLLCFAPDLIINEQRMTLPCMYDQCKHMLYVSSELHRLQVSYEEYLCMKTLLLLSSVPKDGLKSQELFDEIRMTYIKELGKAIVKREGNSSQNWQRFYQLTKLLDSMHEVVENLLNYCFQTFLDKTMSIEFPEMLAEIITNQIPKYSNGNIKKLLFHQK

Row | Structure (SMILES) | affinity for glucocorticoid receptors [1] | teratogenic effect [2] | inhibition of the alkaline phosphatase activity induced by the overexpression of Shh [3] | IC50 ([3]; C3H10T1/2 cells transfected with Shh plasmid pRK5, treated 5 days, 1 nM to 10 μM, alkaline phosphatase activity, mean±standard error (n=4), two experiments, read-out: concentration that inhibits 50% of cell differentiation (IC50)) [µM]
1 | CC#C[C@]1(O)CC[C@H]2[C@@H]3CCC4=CC(=O)CCC4=C3[C@@H](c3ccc(N(C)C)cc3)C[C@@]21C [mifepristone, 17β-hydroxy-11β-(4-dimethylaminophenyl)-17α-(prop-1-ynyl)estra-4,9-dien-3-one] | strong affinity | devoid of any teratogenic effect | completely inhibits | 3.7
2 | CC1=C2C[C@H]3[C@@H](CC=C4C[C@@H](O)CC[C@@]43C)[C@@H]2CC[C@]12O[C@@H]1C[C@H](C)CN[C@H]1[C@H]2C [cyclopamine] |  | teratogenic agent that causes holoprosencephaly and cyclopia | completely inhibited | 
